pIC50: −log10 of the molar value. Read-outs that look alike come from different tables or passages of the source.
How the values were obtained:
Type in all cases: cell-based
human TLR9 = biological target: T1, human TLR9 (Homo sapiens, UniProt Q9NR96); experiment: TLR9 inhibition reporter assay (HEK-Blue cells, secreted embryonic alkaline phosphatase reporter)
T1 construct: host or cells: HEK-Blue cells (HEK293-derived reporter line)
T1 sequence (Q9NR96 26-1032): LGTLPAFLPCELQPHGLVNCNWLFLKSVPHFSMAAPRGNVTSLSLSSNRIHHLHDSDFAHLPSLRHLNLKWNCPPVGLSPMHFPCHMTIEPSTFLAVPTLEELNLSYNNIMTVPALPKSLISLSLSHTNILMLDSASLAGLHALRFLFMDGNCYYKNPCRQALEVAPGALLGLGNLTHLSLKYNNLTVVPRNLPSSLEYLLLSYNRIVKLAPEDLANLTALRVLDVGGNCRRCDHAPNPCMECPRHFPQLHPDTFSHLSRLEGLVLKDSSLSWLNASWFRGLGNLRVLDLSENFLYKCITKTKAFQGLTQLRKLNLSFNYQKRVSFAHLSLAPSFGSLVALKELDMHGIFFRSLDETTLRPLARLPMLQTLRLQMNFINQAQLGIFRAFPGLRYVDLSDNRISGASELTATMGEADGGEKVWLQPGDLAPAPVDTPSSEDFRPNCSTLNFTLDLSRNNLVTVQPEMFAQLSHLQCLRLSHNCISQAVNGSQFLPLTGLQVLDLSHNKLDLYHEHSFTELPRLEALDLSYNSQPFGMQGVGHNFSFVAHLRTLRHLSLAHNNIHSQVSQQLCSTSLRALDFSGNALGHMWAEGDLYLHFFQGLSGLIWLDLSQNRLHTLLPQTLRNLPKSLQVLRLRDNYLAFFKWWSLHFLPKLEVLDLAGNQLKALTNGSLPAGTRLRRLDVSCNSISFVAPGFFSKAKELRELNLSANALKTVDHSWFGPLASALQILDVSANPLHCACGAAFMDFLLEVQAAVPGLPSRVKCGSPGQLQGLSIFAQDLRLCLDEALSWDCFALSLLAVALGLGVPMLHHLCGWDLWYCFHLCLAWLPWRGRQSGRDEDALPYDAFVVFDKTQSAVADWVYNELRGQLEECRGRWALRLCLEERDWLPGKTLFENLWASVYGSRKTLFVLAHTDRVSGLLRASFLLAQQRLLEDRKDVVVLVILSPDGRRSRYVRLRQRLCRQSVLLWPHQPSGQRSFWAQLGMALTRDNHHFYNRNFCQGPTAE
How it was run: (§1)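 Read-out is SEAP colour from HEK-Blue Detection medium after 22 h at 37 °C, converted to percent inhibition between agonist-plus-DMSO and reference-inhibitor wells. Receptor-overexpressing HEK-Blue cells received compound over 0.05 nM–50 μM for 30 min before agonist: gardiquimod 7.5 μM for TLR7, R848 15.9 μM for TLR8, ODN2006 5 nM for TLR9.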

human TLR7 = biological target: T2, human TLR7 (Homo sapiens, UniProt Q9NYK1); experiment: TLR7 inhibition reporter assay (HEK-Blue cells, secreted embryonic alkaline phosphatase reporter); conditions: HEK-Blue cells overexpressing human TLR7, stimulated with gardiquimod 7.5 μM; read-out: TLR 7 IC50
T2 construct: host or cells: HEK-Blue cells (HEK293-derived reporter line)
T2 sequence (Q9NYK1 27-1049): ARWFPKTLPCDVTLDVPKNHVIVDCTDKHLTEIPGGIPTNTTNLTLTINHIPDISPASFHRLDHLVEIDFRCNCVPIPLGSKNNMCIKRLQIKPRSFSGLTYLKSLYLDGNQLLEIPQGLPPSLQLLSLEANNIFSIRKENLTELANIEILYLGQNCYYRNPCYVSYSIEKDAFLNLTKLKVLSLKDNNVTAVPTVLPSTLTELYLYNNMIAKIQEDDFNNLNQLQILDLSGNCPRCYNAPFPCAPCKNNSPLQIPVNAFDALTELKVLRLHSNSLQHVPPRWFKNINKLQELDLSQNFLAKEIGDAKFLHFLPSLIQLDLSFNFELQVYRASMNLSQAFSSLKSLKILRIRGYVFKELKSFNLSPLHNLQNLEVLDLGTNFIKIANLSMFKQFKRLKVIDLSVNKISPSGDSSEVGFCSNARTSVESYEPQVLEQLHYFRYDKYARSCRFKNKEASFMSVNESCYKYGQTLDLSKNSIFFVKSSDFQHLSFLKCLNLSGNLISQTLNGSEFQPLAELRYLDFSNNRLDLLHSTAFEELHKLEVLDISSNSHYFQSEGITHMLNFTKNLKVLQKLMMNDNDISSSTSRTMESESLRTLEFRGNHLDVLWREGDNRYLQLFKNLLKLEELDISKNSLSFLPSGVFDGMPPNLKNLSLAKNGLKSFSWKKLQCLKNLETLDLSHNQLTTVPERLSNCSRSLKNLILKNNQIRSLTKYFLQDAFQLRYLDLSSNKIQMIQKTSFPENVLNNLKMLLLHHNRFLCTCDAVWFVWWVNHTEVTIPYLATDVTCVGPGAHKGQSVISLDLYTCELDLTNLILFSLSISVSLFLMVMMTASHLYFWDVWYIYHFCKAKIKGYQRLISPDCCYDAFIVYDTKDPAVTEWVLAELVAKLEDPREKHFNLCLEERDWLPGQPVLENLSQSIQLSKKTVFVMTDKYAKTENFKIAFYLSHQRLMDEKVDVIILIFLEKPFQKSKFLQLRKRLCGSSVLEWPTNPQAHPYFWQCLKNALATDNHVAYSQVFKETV
How it was run: as §1

human TLR8 = biological target: T3, human TLR8 (Homo sapiens, UniProt Q9NR97); experiment: TLR8 inhibition reporter assay (HEK-Blue cells, secreted embryonic alkaline phosphatase reporter); conditions: HEK-Blue cells overexpressing human TLR8, stimulated with R848 15.9 μM; read-out: TLR 8 IC50
T3 construct: host or cells: HEK-Blue cells (HEK293-derived reporter line)
T3 sequence (Q9NR97 27-1041): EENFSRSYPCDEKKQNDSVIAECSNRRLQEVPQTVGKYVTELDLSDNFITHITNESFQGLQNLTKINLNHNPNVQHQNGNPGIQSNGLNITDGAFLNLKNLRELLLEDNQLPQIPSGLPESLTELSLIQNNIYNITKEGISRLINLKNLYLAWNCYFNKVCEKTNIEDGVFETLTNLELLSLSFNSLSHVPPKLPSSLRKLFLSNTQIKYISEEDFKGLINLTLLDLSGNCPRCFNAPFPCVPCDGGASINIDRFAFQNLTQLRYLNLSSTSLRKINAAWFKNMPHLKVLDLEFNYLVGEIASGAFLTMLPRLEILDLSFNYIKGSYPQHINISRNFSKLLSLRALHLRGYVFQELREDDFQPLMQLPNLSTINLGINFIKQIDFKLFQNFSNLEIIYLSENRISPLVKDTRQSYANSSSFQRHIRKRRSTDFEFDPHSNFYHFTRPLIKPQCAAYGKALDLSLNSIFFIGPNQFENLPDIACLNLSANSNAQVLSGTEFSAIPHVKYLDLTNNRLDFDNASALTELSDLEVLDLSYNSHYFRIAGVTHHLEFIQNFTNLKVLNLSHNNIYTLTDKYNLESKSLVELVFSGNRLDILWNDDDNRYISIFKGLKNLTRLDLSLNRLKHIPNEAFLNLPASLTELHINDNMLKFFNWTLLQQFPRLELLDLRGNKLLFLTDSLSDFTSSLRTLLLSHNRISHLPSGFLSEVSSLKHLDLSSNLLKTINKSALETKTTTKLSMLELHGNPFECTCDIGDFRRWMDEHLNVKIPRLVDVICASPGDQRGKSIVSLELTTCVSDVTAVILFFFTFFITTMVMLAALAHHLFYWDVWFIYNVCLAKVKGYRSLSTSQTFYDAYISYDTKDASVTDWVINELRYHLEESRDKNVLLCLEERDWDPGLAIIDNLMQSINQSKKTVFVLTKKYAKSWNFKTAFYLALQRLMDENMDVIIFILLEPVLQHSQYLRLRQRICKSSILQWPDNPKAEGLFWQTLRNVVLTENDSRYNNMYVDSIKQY
How it was run: as §1

[1] = HEK-Blue cells overexpressing human TLR9, stimulated with ODN2006 5 nM, 22 hour incubation, reporter readout
[2] = HEK-Blue cells overexpressing human TLR9, stimulated with ODN2006 5 nM, read-out: TLR 9 IC50

SMILES	pIC50 (human TLR9; [1])	pIC50 (human TLR9; [2])	pIC50 (human TLR7)	pIC50 (human TLR8)	pIC50 (human TLR9)	pIC50 (human TLR9; HEK-Blue human TLR9 reporter cells)
Cc1cc(C2CCN(C3CCN(C(C)C)CC3)CC2)cc2c1nc(-c1ccc(S(C)(=O)=O)c(F)c1)n2C [Example 122, 2-(3-fluoro-4-(methylsulfonyl)phenyl)-6-(1′-isopropyl-[1,4′-bipiperidin]-4-yl)-1,4-dimethyl-1H-benzo[d]imidazole]	6.85	6.86	5.05	< 4.60		
CCn1c(-c2ccc(OC)c(OC)c2)nc2cc(C3CCN(C4CCN(CC(C)C)CC4)CC3)ccc21 [Example 41, 2-(3,4-dimethoxyphenyl)-1-ethyl-5-(1′-isobutyl-[1,4′-bipiperidin]-4-yl)-1H-benzo[d]imidazole]	6.40	6.39	5.43	5.80		
Cn1c(-c2ccc(S(C)(=O)=O)cc2)nc2c(F)c(C3CCN(C4CC5CCC(C4)N5C4COC4)CC3)ccc21 (stereo not drawn) [Example 196, 4-fluoro-1-methyl-2-(4-(methylsulfonyl)phenyl)-5-(1-(8-(oxetan-3-yl)-8-azabicyclo[3.2.1]octan-3-yl)piperidin-4-yl)-1H-benzo[d]imidazole]		6.24	< 4.30	< 4.30	6.24	
COc1ccc(-c2nc3cc(C4CCN(C5CCN(CC(C)C)CC5)CC4)c(C(F)(F)F)cc3[nH]2)cc1OC [Example 42, 2-(3,4-dimethoxyphenyl)-5-(1′-isobutyl-[1,4′-bipiperidin]-4-yl)-6-(trifluoromethyl)-1H-benzo[d]imidazole]	6.59	6.59	4.49	< 4.30		
CC(C)CN1CCC(N2CCC(c3cc(F)c4nc(-c5ccc(S(C)(=O)=O)cc5)n(C)c4c3)CC2)CC1 [Example 278, 4-fluoro-6-(1′-isobutyl-[1,4′-bipiperidin]-4-yl)-1-methyl-2-(4-(methylsulfonyl)phenyl)-1H-benzo[d]imidazole]		7.24	5.05	< 4.30	7.24	
CC(C)N1C2CCC1CC(N1CCC(c3cc4c(cc3F)nc(-c3ccc(S(C)(=O)=O)cc3)n4C)CC1)C2 (single isomer, unassigned) [Example 97, 5-fluoro-6-(1-(8-isopropyl-8-azabicyclo[3.2.1]octan-3-yl)piperidin-4-yl)-1-methyl-2-(4-(methylsulfonyl)phenyl)-1H-benzo[d]imidazole]	7.10		4.33	< 4.30		
CC(C)N1C2CCC1CC(N1CCC(c3cc4c(cc3F)nc(-c3ccc(S(C)(=O)=O)cc3)n4C)CC1)C2 (single isomer, unassigned) [Example 98, 5-fluoro-6-(1-(8-isopropyl-8-azabicyclo[3.2.1]octan-3-yl)piperidin-4-yl)-1-methyl-2-(4-(methylsulfonyl)phenyl)-1H-benzo[d]imidazole]	8.00		4.62	< 4.30		
CC(C)CN1CCC(N2CCC(c3ccc4nc(-c5ccc(S(C)(=O)=O)cc5)n(C)c4c3F)CC2)CC1 [Example 259, 7-fluoro-6-(1′-isobutyl-[1,4′-bipiperidin]-4-yl)-1-methyl-2-(4-(methylsulfonyl)phenyl)-1H-benzo[d]imidazole]		6.30	< 4.30	< 4.30	6.30	
COCCN1C2CCC1CC(N1CCC(c3cc4nc(-c5ccc(S(C)(=O)=O)cc5)n(C)c4cc3F)CC1)C2 (stereo not drawn) [Example 258, 6-fluoro-5-(1-(8-(2-methoxyethyl)-8-azabicyclo[3.2.1]octan-3-yl)piperidin-4-yl)-1-methyl-2-(4-(methylsulfonyl)phenyl)-1H-benzo[d]imidazole]		7.00	4.73	< 4.30	7.00	
CC(C)N1C2CCC1CC(N1CCC(c3cc(F)c4nc(-c5ccc(S(C)(=O)=O)cc5)n(C)c4c3)CC1)C2 (single isomer, unassigned) [Example 106, 4-fluoro-6-(1-(8-isopropyl-8-azabicyclo[3.2.1]octan-3-yl)piperidin-4-yl)-1-methyl-2-(4-(methylsulfonyl)phenyl)-1H-benzo[d]imidazole]	6.41	6.41	4.45	< 4.30		
Cc1cc(C2CCN(C3CC4CCC(C3)N4CC3CC3)CC2)cc2c1nc(-c1ccc(S(C)(=O)=O)c(F)c1)n2C (stereo not drawn) [Example 341, 6-(1-(8-(cyclopropylmethyl)-8-azabicyclo[3.2.1]octan-3-yl)piperidin-4-yl)-2-(3-fluoro-4-(methylsulfonyl)phenyl)-1,4-dimethyl-1H-benzo[d]imidazole]		7.43	5.66	4.78		7.43

Reference: patent US12492188B2, “1H-benzo[D]imidazole derivatives as TLR9 inhibitors for the treatment of fibrosis” (BRISTOL-MYERS SQUIBB COMPANY, priority 2020, dated 2025)
